Key:
[1] = tested on: Sprague-Dawley rats; assay: Bone calcium mobilization (serum calcium); format: in vivo, rat; conditions: even at the very high dose; four consecutive ip doses; FIG. 4
Source text: FIG. 4 is a bar graph comparing the bone calcium mobilization activity of Des-C,D with that of 1,25(OH)2D3.
Male, weanling Sprague-Dawley rats were placed on Diet 11 (Suda et al. J. Nutr. 100:1049, 1970) (0.47% Ca) diet +vitamins AEK for one week followed by Diet 11 (0.02% Ca) +AEK for 3 weeks. The rats were then switched to a diet containing 0.47% Ca for one week followed by two weeks on a diet containing 0.02% Ca. Dose administration began during the last week on 0.02% calcium diet. Four consecutive ip doses were given approximately 24 hours apart. Twenty-four hours after the last dose, blood was collected from the severed neck and the concentration of serum calcium was determined as a measure of bone calcium mobilization. The first 10 cm of the intestine was also collected for intestinal calcium transport analysis using the everted gut sac method. Antagonism was tested by administering a combination of 1,25(OH)2D3 and the compound to the animal simultaneously.

[2] = molecular target: T1, full-length recombinant rat vitamin D receptor (Rattus norvegicus, UniProt P13053); assay: Vitamin D receptor binding, competition with [3H]-1,25-(OH)2-D3; conditions: competition with [3H]-1,25-(OH)2-D3, FIG. 1
T1 construct: Full-length recombinant rat receptor was expressed in E. coli; histidine tag (C); made in house; host or cells: E. coli BL21 (DE3) Codon Plus RIL
T1 sequence (P13053 1-423): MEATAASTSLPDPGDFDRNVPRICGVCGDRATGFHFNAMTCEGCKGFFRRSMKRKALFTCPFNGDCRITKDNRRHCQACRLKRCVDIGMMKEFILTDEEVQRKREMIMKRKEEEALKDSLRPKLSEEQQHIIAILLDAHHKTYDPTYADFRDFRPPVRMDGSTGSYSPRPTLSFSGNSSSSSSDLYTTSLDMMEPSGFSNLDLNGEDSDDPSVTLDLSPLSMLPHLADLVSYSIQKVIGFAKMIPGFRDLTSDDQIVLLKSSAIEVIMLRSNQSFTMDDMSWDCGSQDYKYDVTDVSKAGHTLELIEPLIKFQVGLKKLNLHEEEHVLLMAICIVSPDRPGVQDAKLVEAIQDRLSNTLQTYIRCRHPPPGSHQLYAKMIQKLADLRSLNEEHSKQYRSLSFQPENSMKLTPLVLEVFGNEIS
Source text: FIG. 1 is a graph comparing the relative activity of Des-C,D and 1,25(OH)2D3 to compete for binding with [^3H]-1 ,25-(OH)2-D3 to the full-length recombinant rat vitamin D receptor.
Full-length recombinant rat receptor was expressed in E. coli BL21 (DE3) Codon Plus RIL cells and purified to homogeneity using two different column chromatography systems. The first system was a nickel affinity resin that utilizes the C-terminal histidine tag on this protein. The protein that eluted from this resin was further purified using ion exchange chromatography (S-Sepharose Fast Flow). Aliquots of the purified protein were quick frozen in liquid nitrogen and stored at −80° C. until use. For use in binding assays, the protein was diluted in TEDK50 (50 mM Tris, 1.5 mM EDTA, pH 7.4, 5 mM DTT, 150 mM KCI) with 0.1% Chaps detergent. […]
Unlabeled ligands were dissolved in ethanol and the concentrations were determined using UV spectrophotometry (1,25(OH)2D3: molar extinction coefficient=18,200 and λmax=265 nm). […]
Radiolabeled and unlabeled ligands were added to 100 mcl of the diluted protein at a final ethanol concentration of ≦10%, mixed and incubated overnight on ice to reach binding equilibrium. […] Total binding was determined from the tubes containing only radiolabeled ligand.

[3] = tested on: 24-hydroxylase (24Ohase) gene promoter in ROS 17/2.8 (bone) cells; assay: In vitro transcription assay (24-hydroxylase gene promoter, luciferase reporter); format: cell-based; conditions: ROS 17/2.8 cells, FIG. 3
Description: FIG. 3 is a graph comparing the in vitro transcription activity of Des-C, D with that of 1,25(OH)2D3.
Transcription activity was measured in ROS 17/2.8 (bone) cells that were stably transfected with a 24-hydroxylase (240hase) gene promoter upstream of a luciferase reporter gene (Arbour et al., 1998). Cells were given a range of doses. Sixteen hours after dosing the cells were harvested and luciferase activities were measured using a luminometer. RLU=relative luciferase units.

[4] = tested on: Human promyelocytic leukemia (HL60) cells; assay: HL-60 differentiation (nitro blue tetrazolium reduction); format: cell-based; conditions: FIG. 2
Description: FIG. 2 is a graph comparing the percent HL-60 cell differentiation as a function of the concentration of Des-C,D with that of 1,25(OH)2D3.
The study drugs were dissolved in ethanol and the concentrations determined using UV spectrophotometry. Serial dilutions were prepared so that a range of drug concentrations was tested without changing the final concentration of ethanol (≦0.2%) present in the cell cultures.
Human promyelocytic leukemia (HL60) cells were grown in RPMI-1640 medium containing 10% fetal bovine serum. The cells were incubated at 37° C. in the presence of 5% CO2.
HL60 cells were plated at 1.2 x 10^5cells/mL. Eighteen hours after plating, cells in duplicate were treated with drug. Four days later, the cells were harvested and a nitro blue tetrazolium reduction assay was performed (Collins et al., 1979; J. Exp. Med. 149:969-974). The percentage of differentiated cells was determined by counting a total of 200 cells and recording the number that contain intracellular black-blue formazan deposits. Verification of differentiation to monocytic cells was determined by measuring phagocytic activity.

C=C1[C@H](O)CC(=C/C=C/CCC[C@@H](C)CCCC(C)(C)O)C[C@H]1O [Des-C,D]
bone calcium mobilizing activity [1]: no measureable bone calcium mobilizing activity
binding to the vitamin D receptor compared with 1,25-(OH)2D3 [2]: does not bind to the vitamin D receptor as strongly as the native hormone 1,25-(OH)2D3
activity in causing transcription compared with 1,25-(OH)2D3 [3]: does not show as much activity in causing transcription as 1,25-(OH)2D3
activity in inducing differentiation of HL-60 cells compared with 1,25-(OH)2D3 [4]: does not show as much activity as 1,25-(OH)2D3
